In US20090318402A1, “RUTHENIUM (II) COMPOUNDS” (The University Court of the University of Edinburg, priority 2006, published 2009):
pIC50: −log10 of the molar value.

How the values were obtained:
[1] = test system: A549 cancer cell line; assay: Cell viability after increasing thiol levels (NAC pre-incubation); format: cell-based; conditions: 24 hours incubation, 96 hour recovery, 5 mM NAC for two hours, FIG. 5
Experimental: Cell viability was determined in the A549 cancer cell line after cells were pre-incubated with 5 mM NAC to increase intracellular thiol levels. […] This implies that ROS are involved in cell death.

[2] = test system: A2780 cancer cell line; assay: Cytotoxicity: inhibitory growth activity, sulforhodamine B assay; format: cell-based; conditions: 24 hours drug exposure, 96 hours recovery, SRB
Experimental: (§1) Compounds were tested for inhibitory growth activity against the A2780 and A549 cancer cell lines. Each drug was tested for activity at six different concentrations (100 μM, 50 μM, 10 μM, 5 μM, 1 μM and 0.1 μM) and each concentration was tested in triplicate, relative to a cisplatin control.
(§2) The A2780 cancer cell line was maintained by growing the cells in RPMI media supplemented with 5% fetal bovine serum, 1% penicillin/streptomycin and 2 mM L-glutamine. The cells were split when approximately 70-80% confluence were reached using 0.25% trypsin/EDTA. The cells were kept incubated at 37° C., 5% CO2, high humidity. The A549 cancer cell line was maintained by growing the cells in DMEM media supplemented with 10% fetal bovine serum, 1% penicillin/streptomycin and 2 mM L-glutamine. The cells were split when approximately 70-80% confluence were reached using 0.25% trypsin/EDTA. The cells were kept incubated at 37° C., 5% CO2, high humidity.
A2780 cancer cells were plated out at 50000 cells/well (±10%) on day one. A549 cancer cells were plated out at 20000 cells/well (±10%) on day two. On day three the test compound was dissolved in DMSO to give a stock solution of 20 mM and serial dilutions were carried out in DMSO to give concentrations of drug in DMSO of 10 mM, 2 mM, 1 mM, 0.2 mM and 0.02 mM. These were added to the wells to give the six testing concentrations and a final concentration of DMSO as 0.5% (v/v) with a total volume of drugs and media to be 200 μl. The cells were exposed to the drug for 24 hours then, after drug removal, fresh media was given and the cells were incubated for 96 hours recovery time. The remaining biomass was estimated by the sulforhodamine B assay. The cells were then fixed using 50 μl 50% (w/v) TCA and incubated at 4° C. for one hour. The biomass was stained with 100 μl 0.4% (w/v) sulforhodamine B in 1% acetic acid. The dye was solubilised with Tris Buffer and the absorbance was read using a BMG Fluostar microplate reader at 595 nm. A baseline correction at 690 nm was subtracted from the values. The absorbance for 100% cell survival was based on the average absorbance for the 0.1 μM dosed triplicate for that drug. IC50 values were calculated using XL-Fit version 4.0.

[3] = test system: A549 cancer cell line; assay: as above; format: cell-based; conditions: 24 hours drug exposure, 96 hours recovery, SRB
Experimental: as §1
as §2, with “The cells were split when approximately 70-80% confluence were reached using 0.25% trypsin/EDTA.” left out
A2780 cancer cells were plated out at 50000 cells/well (±10%) on day one. A549 cancer cells were plated out at 20000 cells/well (±10%) on day two. […] The remaining biomass was estimated by the sulforhodamine B assay. The cells were then fixed using 50 μl 50% (w/v) TCA and incubated at 4° C. for one hour. The biomass was stained with 100 μl 0.4% (w/v) sulforhodamine B in 1% acetic acid. The dye was solubilised with Tris Buffer and the absorbance was read using a BMG Fluostar microplate reader at 595 nm. A baseline correction at 690 nm was subtracted from the values. The absorbance for 100% cell survival was based on the average absorbance for the 0.1 μM dosed triplicate for that drug. IC50 values were calculated using XL-Fit version 4.0.

[4] = Aqueous solution chemistry followed by 1H NMR (hydrolysis, arene loss); format: physicochemical
Experimental: NMR-Spectroscopy: All ^1H NMR experiments for characterization of synthesized compounds were recorded on either a Bruker DMX 500 MHz spectrometer equipped with TBI [^1H, ^13C, ^15N] probe-head, equipped with z-field gradients or a Bruker DPX 360 MHz spectrometer. The proton signals were calibrated against the residual solvent peak, δ 7.27 (chloroform), 2.07 (acetone) and 2.52 (DMSO). The 2D ^1H-TOCSY and 2D ^1H COSY experiments for characterization were run on a Bruker DMX 500 MHz spectrometer. 2D-^1H ROESY experiment for characterization was recorded on a Bruker AVA […] spectrometer equipped with a with a TXI [^1H, ^13C, ^15N] probe-head, equipped with z-field gradients. All pH titration experiments were recorded on a Bruker AVA 600 MHz spectrometer where dioxan was added as an internal reference (δ 3.75, in 100% D2O). The water was suppressed using a 1D Double Pulse Field Gradient Spin Echo (DPFGSE) experiment. The aqueous solution behaviour was recorded on a Bruker bio 600 MHz spectrometer equipped with a cryoprobe and the water was suppressed using a 1D Double Pulse Field Gradient Spin Echo (DPFGSE) experiment. The chemical shifts were measured relative to dioxin (internal reference δ 3.75, in 90% H2O/10% D2O). All spectra were recorded using 5 mm quartz tubes at 298 K unless stated otherwise. All NMR data were processed using Xwin-NMR (Version 2.0 Bruker UK Ltd).
The complex was dissolved in H2O/D2O, the pH was taken, and NMR spectra were recorded at uniform time intervals at a fixed temperature using a multi-zg kinetic experiment program. After acquisition, Electrospray Mass Spectrometry was performed on a portion of the NMR solution.
The solution chemistry was followed by ^1H NMR unless stated otherwise.

[5] = Solution chemistry in phosphate buffer mimicking cell test conditions (NMR, ESI-MS); format: physicochemical; conditions: 100 μM, 10 mM phosphate buffer, 95% D2O, 5% MeOD, 310 K, 24 h; pH* 7.35 (8), 7.40 (10), 7.31 (13), 7.38 (21)
Experimental: Solutions of four ruthenium complexes (8, 10, 13 and 21) in MeOD were diluted down in 10 mM phosphate buffer/D2O to give a final concentration of 100 μM ruthenium (95% D2O, 5% MeOD) and NMR spectra were recorded at 310 K initially (time ca. 15 minutes) and after 24 h. The pH* of the samples was 7.35 (8), 7.40 (10), 7.31 (13) and 7.38 (21), The samples were kept in the water bath at 310 K between acquisitions. After 24 hour, ESI-MS was performed on the samples. These conditions were chosen to mimic pH, concentration, exposure time and temperature for the biological cell tests.

[6] = Reactions with ascorbate (UV-Vis, 1H NMR); format: physicochemical; conditions: 5 equivalents ascorbate, 10 mM phosphate buffer, pH 7.35 (UV-Vis) / 7.30 (NMR), 310K
[7] = test system: A549 cancer cells; assay: Detection of reactive oxygen species (ROS) with DCFH-DA probe; format: cell-based; conditions: 25 μM, 0.5% DMSO, 6.5 hours, 310 K, cells pre-loaded with DCFH-DA; FIG. 4
Experimental: The generation of ROS can be detected inside living cells using the molecular probe DCFH-DA. This probe crosses the membrane into cells where it is hydrolyzed to DCFH. In the presence of ROS it is oxidized to highly fluorescent DCF. […] Cells were loaded with DCFH-DA (10 μM, 0.5% DMSO (v/v)) and were incubated at 310 K, 5% CO2, high humidity for 30 minutes. The probe was removed and the cells were washed twice with PBS (200 μL). The cells were then kept in Hanks Balanced Salt Solution (HBSS) and the ruthenium compounds were diluted with HBSS and added to the wells (25 μM, 0.5% DMSO (v/v)). Hydrogen peroxide (25 μM) was added as a positive control and the fluorescence was read every 200 seconds over a period of 6.5 hours at 310 K by excitation at 480±10 nm and emission at 538±15 nm on a BMG fluostar plate reader. A time course experiment was performed to follow any increase in fluorescence over 6.5 hours after addition of ruthenium compounds to cells pre-loaded with DFCH-DA.

[8] = 50 μM, 95% H2O, 5% MeOH, pH 2.27
[9] = 100 μM, 90% H2O/10% D2O, pH=ca 5, 25° C., initially (time=40 mins)

Molecule | pIC50 [2] | pIC50 [3] | other results
[NH2][Pt]([NH2])([Cl])[Cl] [CDDP, cisplatin, reference compound] |  |  | cell survival of cells pre-treated with NAC versus untreated cells ([1]; 5 μM drug): greater cell survival
CN(C)c1ccc(N=Nc2ccccn2)cc1.Cc1ccc(C(C)C)cc1.F[P-](F)(F)(F)(F)F.[I-].[Ru+2] [Compound 8, [Ru(p-cymene)(Azpy-NMe2)I]PF6] | 5.30 | 5.52 | change of complex in solution ([4]; 100 μM, 99.5% D2O, 0.5% DMSO, 115 mM NaCl, pH=7.5, 37° C., over 24 hours): No change occurred; change of complex in solution ([4]; saturated solution (filtered), 90% H2O/10% D2O, pH=7.2, 25° C. over 24 hours): No change occurred; hydrolysis [5]: no hydrolysis had occurred; reduction by ascorbate [6]: a one electron reduction was occurring; change in DCF fluorescence over time (ROS generation) [7]: increase in the DCF fluorescence; cell survival of cells pre-treated with NAC versus untreated cells ([1]; 5 μM drug): greater cell survival
CN(C)c1ccc(N=Nc2cc[nH]n2)cc1.F[P-](F)(F)(F)(F)F.[Cl-].[Ru+2].c1ccc(-c2ccccc2)cc1 [Compound 15, [Ru(biphenyl)(3(5)-(4-dimethylaminophenylazo)pyrazole)Cl]PF6] | 4.62 | 4.49 | arene loss (free biphenyl peaks) ([4]; 100 μM, 99.5% D2O, 0.5% DMSO, 115 mM NaCl, pH=7.35, 37° C., over 24 hours): major peaks corresponding to free biphenyl
CN(C)c1ccc(N=Nc2cc[nH]n2)cc1.F[P-](F)(F)(F)(F)F.[I-].[Ru+2].c1ccc(-c2ccccc2)cc1 [Compound 16, [Ru(biphenyl)(3(5)-(4-dimethylaminophenylazo)pyrazole)I]PF6] | 4.51 | 4.38 | 
[(η^6-C6H5OCH2CH2OH)Ru(azpy-NMe2)I]I [Compound 22] | 4.82 | 4.31 | 
[Ru(THN)(3(5)-(4-dimethylaminophenylazo)pyrazole)Cl]PF6 [Compound 18] | 4.24 |  | 
[Ru(THN)(4-phenol-azo pyridine)Cl]PF6 [Compound 19] | 4.42 | 4.09 | 
[Ru(benzene)(3(5)-(4-dimethylaminophenylazo)pyrazole)Cl]PF6 [Compound 17] | 4.06 |  | 
[Ru(bip)(2-phenyl-azo pyridine)I]PF6 [Compound 7] | 4.29 | 4.41 | 
[Ru(biphenyl)(4-phenol-azo pyridine)Cl]PF6 [Compound 12] | 4.74 | 4.25 | 
[Ru(biphenyl)(4-phenol-azo pyridine)I]PF6 [Compound 13] | 5.30 | 5.22 | change in DCF fluorescence over time (ROS generation) [7]: increase in the DCF fluorescence; cell survival of cells pre-treated with NAC versus untreated cells ([1]; 5 μM drug): greater cell survival
[Ru(biphenyl)(Azpy-NMe2)Cl]PF6 [Compound 9] | 4.40 | 4.28 | 
[Ru(biphenyl)(Azpy-NMe2)I]PF6 [Compound 10] | 5.52 | 5.70 | change in DCF fluorescence over time (ROS generation) [7]: increase in the DCF fluorescence; cell survival of cells pre-treated with NAC versus untreated cells ([1]; 1 μM drug): greater cell survival
[Ru(p-cymene)(3(5)-(4-dimethylaminophenylazo)pyrazole)Cl]PF6 [Compound 14] | 4.74 | 4.39 | speciation after 24 hours ([4]; 100 μM, 90% H2O/10% D2O, pH=ca 5, 25° C., after 24 hours): exists fully in the aqua form; aqua species [4, 9]: ~40%; chloride species [4, 9]: ~60%; course of the hydrolysis reaction ([4]; 100 μM, 90% H2O/10% D2O, pH=ca 5, 37° C. over 24 hours, compared with 25° C.): the course of the reaction is the same; half live for hydrolysis [8]: 2.09 h
[Ru(p-cymene)(4-phenol-azo pyridine)Cl]PF6 [Compound 11] | 4.27 |  | 
[Ru(p-cymene)(4-phenol-azo pyridine)I]PF6 [Compound 21] | 5.40 | 5.40 | change in DCF fluorescence over time (ROS generation) [7]: increase in the DCF fluorescence; cell survival of cells pre-treated with NAC versus untreated cells ([1]; 5 μM drug): greater cell survival
[Ru(p-cymene)(Azpy-NMe2NO2)I]PF6 [Compound 20] | 4.40 | 4.55 | 
